Laboratory results taken from patent US20240139197A1, “INHIBITION OF KDM5A FOR PROMOTING ANTIGEN PRESENTATION, INCREASING CD8+ T CELL INFILTRATION AND BOOSTING ANTI-TUMOR IMMUNE RESPONSE” (The Wistar Institute of Anatomy and Biology, priority 2022, published 2024).

How the values were obtained:
HGS2 cells = assay: cell viability by colony formation assay, HGS2; assay type: cell-based, mouse; settings: HGS2, 10 μM, 8 days
Experimental: FIG. 6A-FIG. 6K show KDM5A inhibition promotes anti-tumor immune response in vivo. (FIG. 6A) Expression of H3K4me3, Kdm5a and a loading control b-actin in an independent second doxycycline-inducible shKdm5a ID8 clone treated with or without 2 μg/mL of doxycycline. (FIG. 6B) Same as FIG. 6A, but doxycycline-inducible shKdm5a ID8 cells were plated into 24 well plates and treated with 2 μg/mL of doxycycline the same day. Cells were incubated for 8 days. Relative cell viability was determined by colony formation assay. (FIG. 6C) Expression of H3K4me3, Kdm5a and a loading control b-actin in HGS2 cells treated 10 μM of CPI-455 or vehicle controls for 72 hours. […] Relative cell viability was determined by colony formation assay. (FIG. 6E-FIG. 6F) Bioluminescence signal was measured by IVIS system in indicated animal groups in the immunocompetent C57BL/6 mouse model once a week (FIG. 6E) and the survival of the indicated groups was determined by Kaplan-Meier survival curves (FIG. 6F) (n=5 mice per group). […] Ascites volumes produced from the indicated groups were quantified (FIG. 6H). n=5 mice per group. […] (FIG. 6J-FIG. 6K) Bioluminescence signal was measured by IVIS system in indicated animal groups in the immunocompromised NSG mouse model once a week (FIG. 6J), or examined for Kaplan-Meier survival curves for the indicated groups (FIG. 6K). […]

H3K4me3 in ID8 cells = assay: immunoblot of H3K4me3, ID8; assay type: cell-based, mouse; settings: ID8, 10 μM
Experimental: FIG. 2A-FIG. 2J show KDM5A inhibition suppresses tumor growth in vivo in an immune-competent mouse model of ovarian cancer. (FIG. 2A) Expression of Kdm5a, H3K4me3, and a loading control β-actin in doxycycline-inducible shKdm5a ID8 mouse EOC cells treated with or without 2 μg/mL of doxycycline. (FIG. 2B) ID8 cells were plated into 24 well plates and treated with 2 μg/mL of doxycycline the same day. Cells were incubated for 8 days. Relative cell viability was determined by colony formation assay. (FIG. 2C) Expression of Kdm5a, H3K4me3, and a loading control β-actin in ID8 cells treated with 10uM CPI-455 or vehicle control. (FIG. 2D) ID8 cells were plated into 24 well plates and incubated with 10 μM CPI-455 for 8 days with fresh drug-containing media every 3 days. Relative cell viability was determined by colony formation assay. (FIG. 2E) Ascites produced in C57BL/6 mice injected with doxycycline-inducible shKdm5a ID8 cells treated with control or doxycycline containing food. (FIG. 2F) Quantification of ascites volumes from FIG. 2E. […] (FIG. 21) Quantification of ascites volumes from FIG. 2H. […] Data represent mean±SEM of three biological repeats or 5 mice per group; P-value was calculated by using a two-tailed Student t test except in FIG. 2G and FIG. 2J by log rank tests.
Cells were trypsinized and washed two times with PBS. […] Protein concentration was measured by the BCA assay (Pierce, Cat #23225). […]

## CPI-455
HGS2 cells
  cell viability: did not affect cell viability
H3K4me3 in ID8 cells
  H3K4me3 levels: increase H3K4me3 levels
